pEC50, pIC50: −log10 of the molar value. Read-outs that look alike come from different tables or passages of the source.

The text below walks through data of patent publication US7491794B2, “Macrocyclic compounds as inhibitors of viral replication” (Intermune, Inc., priority 2003, dated 2009).

For one assay, the target named is T1, NS3-NS4A protease (Hepatitis C virus genotype 1a, UniProt P27958).
T1 construct: Recombinant E. coli or Baculovirus full-length NS3 was diluted to 3.33 μM with assay buffer; made in house; host or cells: E. coli or baculovirus (BV) system
T1 sequence (P27958 1027-1657): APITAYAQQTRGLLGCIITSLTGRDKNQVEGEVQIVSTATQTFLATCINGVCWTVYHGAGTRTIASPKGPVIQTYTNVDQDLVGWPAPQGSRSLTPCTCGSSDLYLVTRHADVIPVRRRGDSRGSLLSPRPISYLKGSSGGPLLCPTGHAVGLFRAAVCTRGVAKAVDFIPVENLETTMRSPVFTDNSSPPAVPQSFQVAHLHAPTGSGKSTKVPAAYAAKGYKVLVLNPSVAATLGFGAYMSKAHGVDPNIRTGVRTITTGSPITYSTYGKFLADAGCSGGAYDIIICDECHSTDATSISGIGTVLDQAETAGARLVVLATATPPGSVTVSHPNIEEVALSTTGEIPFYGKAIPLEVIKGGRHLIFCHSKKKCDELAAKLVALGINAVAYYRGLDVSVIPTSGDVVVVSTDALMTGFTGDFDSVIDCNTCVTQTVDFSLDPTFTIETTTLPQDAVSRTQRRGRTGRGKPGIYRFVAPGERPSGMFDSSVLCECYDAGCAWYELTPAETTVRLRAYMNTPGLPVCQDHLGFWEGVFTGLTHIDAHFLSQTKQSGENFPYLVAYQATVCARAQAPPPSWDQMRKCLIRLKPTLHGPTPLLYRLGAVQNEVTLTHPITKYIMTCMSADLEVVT
In words: NS3-NS4A protease assay (NS3 inhibition assay, RETS1 substrate), Section B. In kind it is biochemical. The procedure, abridged: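 Full-length NS3 (E. coli or baculovirus) precomplexed with excess NS4A-2 peptide, run at 2 nM (E. coli) or 3 nM (BV) NS3; compounds pre-incubated 10 min at room temperature before RETS1 substrate. Fluorescence (ex 335/em 495 nm) read kinetically 30 min; IC50 from four-parameter fit, converted to Ki via Ki=IC50/(1+[S]/Km).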

Assay [1] deals with HCV sub-genomic replicon, GS4.3. The assay is described as follows: Quantitation by ELISA of NPTII in the HCV sub-genomic replicon, GS4.3, Section B. It counts as cell-based. The note with it: Hepatitis C virus; GS4.3 cells, 72 h incubation; read-out: Replicon EC50. The procedure, abridged: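 GS4.3 cells (HuH-7 carrying HCV 1377/NS3-3′ replicon) were treated 72 h at 37 °C with inhibitors in 3-fold dilutions, 1% DMSO, no G418. Lysate NPTII was measured by ELISA (TMB, 450 nm). Signal as % of DMSO control; EC50 from 4-parameter fit.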
For orientation: In an ELISA, binding on a coated surface is turned into a signal by an enzyme label.

The pIC50 is the negative decadic logarithm of the IC50, by convention in mol/L. Broadly, the pEC50 is −log10 of the EC50, conventionally taken in molar units. On to `CC(C)(C)NC(=O)N[C@H]1CCCCC/C=C\[C@@H]2C[C@@]2(C(=O)NS(=O)(=O)C2CC2)NC(=O)[C@@H]2C[C@@H](OC(=O)N3Cc4cccc(F)c4C3)CN2C1=O` [AR00338066, (1S,4R,6S,14S,18R)-4-Fluoro-1,3-dihydro-isoindole-2-carboxylic acid 14-(3-tert-butyl-ureido)-4-cyclopropanesulfonylaminocarbonyl-2,15-dioxo-3,16-diaza-tricyclo[14.3.0.0^4,6]nonadec-7-en-18-yl ester], for which, at NS3-NS4A protease (read-out: NS3-NS4A IC50), the pIC50 is above 7.00. In assay [1], the negative logarithm of the EC50 (pEC50) was above 7.00.
Take `CC(C)(C)CC(=O)N[C@H]1CCCCC/C=C\[C@@H]2C[C@@]2(C(=O)NS(=O)(=O)C2CC2)NC(=O)[C@@H]2C[C@@H](OC(=O)N3Cc4cccc(F)c4C3)CN2C1=O` [AR00338070, (1S,4R,6S,14S,18R)-4-Fluoro-1,3-dihydro-isoindole-2-carboxylic acid 4-cyclopropanesulfonylaminocarbonyl-14-(3,3-dimethyl-butyrylamino)-2,15-dioxo-3,16-diaza-tricyclo[14.3.0.0^4,6]nonadec-7-en-18-yl ester]: the pIC50 at NS3-NS4A protease (read-out: NS3-NS4A IC50) is above 7.00. In addition, the pEC50 in assay [1] is above 7.00.
Consider `O=C(CCC(F)(F)F)N[C@H]1CCCCC/C=C\[C@@H]2C[C@@]2(C(=O)NS(=O)(=O)C2CC2)NC(=O)[C@@H]2C[C@@H](OC(=O)N3Cc4cccc(F)c4C3)CN2C1=O` [AR00338071, (1S,4R,6S,14S,18R)-4-Fluoro-1,3-dihydro-isoindole-2-carboxylic acid 4-cyclopropanesulfonylaminocarbonyl-2,15-dioxo-14-(4,4,4-trifluoro-butyrylamino)-3,16-diaza-tricyclo[14.3.0.0^4,6]nonadec-7-en-18-yl ester], for which the pIC50 at NS3-NS4A protease (read-out: NS3-NS4A IC50) was above 7.00. In addition, the pEC50 in assay [1] is above 7.00.
Take `CC(=O)N[C@H](C(=O)N[C@H]1CCCCC/C=C\[C@@H]2C[C@@]2(C(=O)NS(=O)(=O)C2CC2)NC(=O)[C@@H]2C[C@@H](OC(=O)N3Cc4cccc(F)c4C3)CN2C1=O)C1CCCCC1` [AR00340122, (1S,4R,6S,14S,18R)-4-Fluoro-1,3-dihydro-isoindole-2-carboxylic acid 14-(2-acetylamino-2-cyclohexyl-acetylamino)-4-cyclopropanesulfonylaminocarbonyl-2,15-dioxo-3,16-diaza-tricyclo[14.3.0.0^4,6]nonadec-7-en-18-yl ester]: on NS3-NS4A protease, the pIC50 was above 7.00. For the same compound, the pEC50 in assay [1] is above 6.00.
With `COc1ccc(CC(=O)N[C@H]2CCCCC/C=C\[C@@H]3C[C@@]3(C(=O)NS(=O)(=O)C3CC3)NC(=O)[C@@H]3C[C@@H](OC(=O)N4Cc5cccc(F)c5C4)CN3C2=O)cc1` [AR00340156, (1S,4R,6S,14S,18R)-4-Fluoro-1,3-dihydro-isoindole-2-carboxylic acid 4-cyclopropanesulfonylaminocarbonyl-14-[2-(4-methoxy-phenyl)-acetylamino]-2,15-dioxo-3,16-diaza-tricyclo[14.3.0.0^4,6]nonadec-7-en-18-yl ester], at NS3-NS4A protease (read-out: NS3-NS4A IC50), the pIC50 was above 7.00. Also, the negative logarithm of the EC50 (pEC50) in assay [1] was above 6.00.
In the same order, the values of `CC(C)(C)OC(=O)N[C@H]1CCCCC/C=C\[C@@H]2C[C@@]2(C(=O)NS(=O)(=O)c2ccc(Cl)s2)NC(=O)[C@@H]2C[C@@H](OC(=O)N3Cc4ccc(Cl)cc4C3)CN2C1=O` [AR00340173, (1S,4R,6S,14S,18R)-5-Chloro-1,3-dihydro-isoindole-2-carboxylic acid 14-tert-butoxycarbonylamino-4-(5-chloro-thiophene-2-sulfonylaminocarbonyl)-2,15-dioxo-3,16-diaza-tricyclo[14.3.0.0^4,6]nonadec-7-en-18-yl ester] are above 7.00 and above 5.00.
For the compound `COc1cccc(CC(=O)N[C@H]2CCCCC/C=C\[C@@H]3C[C@@]3(C(=O)NS(=O)(=O)C3CC3)NC(=O)[C@@H]3C[C@@H](OC(=O)N4Cc5cccc(F)c5C4)CN3C2=O)c1` [AR00340178, (1S,4R,6S,14S,18R)-4-Fluoro-1,3-dihydro-isoindole-2-carboxylic acid 4-cyclopropanesulfonylaminocarbonyl-14-[2-(3-methoxy-phenyl)-acetylamino]-2,15-dioxo-3,16-diaza-tricyclo[14.3.0.0^4,6]nonadec-7-en-18-yl ester], on NS3-NS4A protease (read-out: NS3-NS4A IC50), the pIC50 is above 7.00. Moreover, the pEC50 in assay [1] is above 7.00.
Regarding `O=C(Cc1ccccc1)N[C@H]1CCCCC/C=C\[C@@H]2C[C@@]2(C(=O)NS(=O)(=O)C2CC2)NC(=O)[C@@H]2C[C@@H](OC(=O)N3Cc4cccc(F)c4C3)CN2C1=O` [AR00340188, (1S,4R,6S,14S,18R)-4-Fluoro-1,3-dihydro-isoindole-2-carboxylic acid 4-cyclopropanesulfonylaminocarbonyl-2,15-dioxo-14-phenylacetylamino-3,16-diaza-tricyclo[14.3.0.0^4,6]nonadec-7-en-18-yl ester], the pIC50 at NS3-NS4A protease (read-out: NS3-NS4A IC50) was above 7.00. In assay [1], the pEC50 is above 6.00.
For `O=C(N[C@H](C(=O)N[C@H]1CCCCC/C=C\[C@@H]2C[C@@]2(C(=O)NS(=O)(=O)C2CC2)NC(=O)[C@@H]2C[C@@H](OC(=O)N3Cc4cccc(F)c4C3)CN2C1=O)C1CCCCC1)c1cnccn1` [AR00340303, (1S,4R,6S,14S,18R)-4-Fluoro-1,3-dihydro-isoindole-2-carboxylic acid 14-{2-cyclohexyl-2-[(pyrazine-2-carbonyl)-amino]-acetylamino}-4-cyclopropanesulfonylaminocarbonyl-2,15-dioxo-3,16-diaza-tricyclo[14.3.0.0^4,6]nonadec-7-en-18-yl ester], the pIC50 against NS3-NS4A protease was above 7.00. Further, the pEC50 in assay [1] was above 6.00.
For `CC(C)(C)OC(=O)N[C@H]1CCCCC/C=C\[C@@H]2C[C@@]2(C(=O)NS(=O)(=O)C(F)(F)F)NC(=O)[C@@H]2C[C@@H](OC(=O)N3Cc4ccccc4C3)CN2C1=O` [AR00340479, (1S,4R,6S,14S,18R)-1,3-Dihydro-isoindole-2-carboxylic acid 14-tert-butoxycarbonylamino-2,15-dioxo-4-trifluoromethanesulfonylaminocarbonyl-3,16-diaza-tricyclo[14.3.0.0^4,6]nonadec-7-en-18-yl ester], the pIC50 on NS3-NS4A protease (read-out: NS3-NS4A IC50) is above 7.00. For the same compound, in assay [1], the pEC50 was above 7.00.
Regarding `CC(C)(C)OC(=O)N[C@H]1CCCCC/C=C\[C@@H]2C[C@@]2(C(=O)NS(=O)(=O)C2CC2)NC(=O)[C@@H]2C[C@@H](OC(=O)N3Cc4ccc(N5CCOCC5)cc4C3)CN2C1=O` [AR00340494, (1S,4R,6S,14S,18R)-5-Morpholin-4-yl-1,3-dihydro-isoindole-2-carboxylic acid 14-tert-butoxycarbonylamino-4-cyclopropanesulfonylaminocarbonyl-2,15-dioxo-3,16-diaza-tricyclo[14.3.0.0^4,6]nonadec-7-en-18-yl ester], the pIC50 at NS3-NS4A protease (read-out: NS3-NS4A IC50) is above 7.00. Besides, the pEC50 in assay [1] was above 7.00.
As to `CN1CCN(c2ccc3c(c2)CN(C(=O)O[C@@H]2C[C@H]4C(=O)N[C@]5(C(=O)NS(=O)(=O)C6CC6)C[C@H]5/C=C\CCCCC[C@H](NC(=O)OC(C)(C)C)C(=O)N4C2)C3)CC1` [AR00340495, (1S,4R,6S,14S,18R)-5-(4-Methyl-piperazin-1-yl)-1,3-dihydro-isoindole-2-carboxylic acid 14-tert-butoxycarbonylamino-4-cyclopropanesulfonylaminocarbonyl-2,15-dioxo-3,16-diaza-tricyclo[14.3.0.0^4,6]nonadec-7-en-18-yl ester], the pIC50 at NS3-NS4A protease (read-out: NS3-NS4A IC50) was above 7.00. Besides, in assay [1], the pEC50 is above 7.00.
As to `CC(C)(C)OC(=O)N[C@H]1CCCCC/C=C\[C@@H]2C[C@@]2(C(=O)NS(=O)(=O)C2CC2)NC(=O)[C@@H]2C[C@@H](OC(=O)N3Cc4ccc(Br)cc4C3)CN2C1=O` [AR00340526, (1S,4R,6S,14S,18R)-5-Bromo-1,3-dihydro-isoindole-2-carboxylic acid 14-tert-butoxycarbonylamino-4-cyclopropanesulfonylaminocarbonyl-2,15-dioxo-3,16-diaza-tricyclo[14.3.0.0^4,6]nonadec-7-en-18-yl ester], the pIC50 on NS3-NS4A protease (read-out: NS3-NS4A IC50) is above 7.00. Moreover, the pEC50 in assay [1] is above 7.00.
`CC(C)Nc1ccc2c(c1)CN(C(=O)O[C@@H]1C[C@H]3C(=O)N[C@]4(C(=O)NS(=O)(=O)C5CC5)C[C@H]4/C=C\CCCCC[C@H](NC(=O)OC(C)(C)C)C(=O)N3C1)C2` [AR00341649, (1S,4R,6S,14S,18R)-5-Isopropylamino-1,3-dihydro-isoindole-2-carboxylic acid 14-tert-butoxycarbonylamino-4-cyclopropanesulfonylaminocarbonyl-2,15-dioxo-3,16-diaza-tricyclo[14.3.0.0^4,6]nonadec-7-en-18-yl ester]: the pIC50 at NS3-NS4A protease (read-out: NS3-NS4A IC50) was above 7.00. The pEC50 in assay [1] is above 7.00.
With `CC(C)(C)OC(=O)N[C@H]1CCCCC/C=C\[C@@H]2C[C@@]2(C(=O)NS(=O)(=O)C2CC2)NC(=O)[C@@H]2C[C@@H](OC(=O)N3Cc4ccc(OCCOC(=O)N5CCOCC5)cc4C3)CN2C1=O` [AR00345032, (1S,4R,6S,14S,18R)-5-[2-(Morpholine-4-carbonyloxy)-ethoxy]-1,3-dihydro-isoindole-2-carboxylic acid 14-tert-butoxycarbonylamino-4-cyclopropanesulfonylaminocarbonyl-2,15-dioxo-3,16-diaza-tricyclo[14.3.0.0^4,6]nonadec-7-en-18-yl ester], the pIC50 at NS3-NS4A protease (read-out: NS3-NS4A IC50) is above 7.00. The pEC50 in assay [1] is above 7.00.
